Results: ChEMBL document CHEMBL3621070, “Design and synthesis of 2-phenylnaphthalenoids and 2-phenylbenzofuranoids as DNA topoisomerase inhibitors and antitumor agents” (Eur J Med Chem, 2015)
Activity calls are given as the source filed them. The rule behind the calls is not given here.

How the values were obtained:
Nucleic Acid [1] = assay: Induction of DNA intercalation in Escherichia coli pBR322 plasmid DNA assessed as supercoiled DNA formation at 100 uM after 1 hr by agarose gel electrophoresis; format: nucleic-acid assay
MDA-MB-435 [2] = assay: Antiproliferative activity against human MDA-MB-435 cells assessed as growth inhibition at 10 uM after 72 hrs by SRB assay; format: functional; details: MDA-MB-435, 72 h, read-out: GI
MDA-MB-231 [3] = assay: Antiproliferative activity against human MDA-MB-231 cells assessed as growth inhibition at 10 uM after 72 hrs by SRB assay; format: functional; details: MDA-MB-231, 72 h, read-out: GI
Bos taurus = species on record: Bos taurus; assay: Inhibition of calf thymus topoisomerase 1 assessed as relaxation of pBR322 DNA at 100 uM after 30 mins by agarose gel electrophoresis
Nucleic Acid [4] = assay: Induction of DNA intercalation in Escherichia coli pBR322 plasmid DNA assessed as supercoiled DNA formation at 10 ug/ml after 1 hr by agarose gel electrophoresis; format: nucleic-acid assay
PC-3 = assay: Antiproliferative activity against human PC3 cells after 72 hrs by SRB assay; format: functional, cell-based; details: PC-3, 72 h
MDA-MB-231 [5] = assay: Antiproliferative activity against human MDA-MB-231 cells after 72 hrs by SRB assay; format: functional, cell-based; details: MDA-MB-231, 72 h
MDA-MB-435 [6] = assay: Antiproliferative activity against human MDA-MB-435 cells after 72 hrs by SRB assay; format: functional, cell-based; details: MDA-MB-435, 72 h
HepG2 = assay: Antiproliferative activity against human HepG2 cells after 72 hrs by SRB assay; format: functional, cell-based; details: HepG2, 72 h
MDA-MB-231 [7] = assay: Inhibition of topoisomerase in human MDA-MB-231 cells assessed as ATM phosphorylation at Ser1981 residue at 10 uM after 24 hrs by western blot analysis; format: cell-based
[8] = molecular target: DNA topoisomerase 2-alpha (Homo sapiens) (UniProt P11388); assay: Inhibition of human recombinant topoisomerase 2alpha assessed as relaxation of pBR322 DNA at 100 uM after 30 mins by agarose gel electrophoresis
[9] = molecular target: DNA topoisomerase 2-alpha (Homo sapiens) (UniProt P11388); details: 100 uM
Description: Inhibition of human recombinant topoisomerase 2 alpha assessed as topoisomerase poison activity by measuring generation of linear DNA using circular supercoiled DNA at 100 uM by agarose gel electrophoresis

Chain of DNA topoisomerase 2-alpha (Homo sapiens) (P11388 whole entry): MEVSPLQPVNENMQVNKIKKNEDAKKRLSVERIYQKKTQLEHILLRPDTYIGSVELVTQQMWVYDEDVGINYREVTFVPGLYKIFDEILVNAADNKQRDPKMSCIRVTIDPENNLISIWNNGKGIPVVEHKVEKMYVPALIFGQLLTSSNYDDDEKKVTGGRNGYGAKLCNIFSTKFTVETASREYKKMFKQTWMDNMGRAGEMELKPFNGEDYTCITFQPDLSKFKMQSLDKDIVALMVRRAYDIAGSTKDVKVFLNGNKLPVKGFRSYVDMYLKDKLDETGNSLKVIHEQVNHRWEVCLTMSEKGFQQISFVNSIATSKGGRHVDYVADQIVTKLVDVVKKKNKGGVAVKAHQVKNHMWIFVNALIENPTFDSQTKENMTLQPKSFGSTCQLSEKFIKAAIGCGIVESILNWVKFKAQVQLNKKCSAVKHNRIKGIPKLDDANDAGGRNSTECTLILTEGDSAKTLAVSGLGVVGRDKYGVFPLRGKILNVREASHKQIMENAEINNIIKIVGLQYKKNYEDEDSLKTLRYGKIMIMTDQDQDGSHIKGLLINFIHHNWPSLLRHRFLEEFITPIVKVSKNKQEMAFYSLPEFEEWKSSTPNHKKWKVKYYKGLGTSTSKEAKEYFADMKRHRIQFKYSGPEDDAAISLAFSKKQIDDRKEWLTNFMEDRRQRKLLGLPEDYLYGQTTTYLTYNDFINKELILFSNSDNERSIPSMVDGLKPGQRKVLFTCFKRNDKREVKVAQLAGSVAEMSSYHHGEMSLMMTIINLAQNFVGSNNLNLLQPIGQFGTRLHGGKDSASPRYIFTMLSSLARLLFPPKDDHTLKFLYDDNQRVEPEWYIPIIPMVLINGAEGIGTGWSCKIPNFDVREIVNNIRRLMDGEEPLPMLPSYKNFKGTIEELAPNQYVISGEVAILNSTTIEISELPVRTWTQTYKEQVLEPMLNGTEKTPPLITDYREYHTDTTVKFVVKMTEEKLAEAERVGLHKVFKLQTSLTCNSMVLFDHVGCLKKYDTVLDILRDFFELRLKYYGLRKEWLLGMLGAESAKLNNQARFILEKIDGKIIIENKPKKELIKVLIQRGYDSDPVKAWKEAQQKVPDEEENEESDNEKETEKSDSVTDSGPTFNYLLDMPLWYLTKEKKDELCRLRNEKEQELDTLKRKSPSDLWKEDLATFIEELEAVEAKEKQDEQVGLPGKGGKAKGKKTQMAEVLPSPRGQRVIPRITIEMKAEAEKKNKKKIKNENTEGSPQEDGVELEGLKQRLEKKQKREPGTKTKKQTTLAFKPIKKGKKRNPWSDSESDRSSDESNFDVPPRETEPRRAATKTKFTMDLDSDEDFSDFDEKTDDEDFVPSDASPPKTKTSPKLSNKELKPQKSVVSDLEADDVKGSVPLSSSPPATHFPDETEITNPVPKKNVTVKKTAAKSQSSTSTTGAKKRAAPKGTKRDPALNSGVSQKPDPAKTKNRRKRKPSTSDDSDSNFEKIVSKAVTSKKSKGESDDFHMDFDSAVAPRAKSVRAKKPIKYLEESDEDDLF

`COc1cccc2c1C(=O)c1c(O)c3c(c(O)c1C2=O)C[C@@](O)(C(=O)CO)C[C@@H]3O[C@H]1C[C@H](N)[C@H](O)[C@H](C)O1` was tested. Which Activity (Nucleic Acid [1]) did it give?
The Activity was “Active”.

For `Oc1ccc2oc(-c3ccc4c(c3)OCO4)cc2c1`, which inhibition of growth at 10 µM (MDA-MB-435 [2]) is on record?
Its inhibition of growth at 10 µM is 11.2%.

And the inhibition of growth at 10 µM (MDA-MB-231 [3])?
The inhibition of growth at 10 µM was 3.6%.

`CC[C@@]1(O)C(=O)OCc2c1cc1n(c2=O)Cc2cc3cc(O)ccc3nc2-1` was tested. Which inhibition (Bos taurus) did it give?
Its inhibition is “Active”.

`CC[N+](C)(CC)CCC[n+]1c(-c2ccccc2)c2cc(N)ccc2c2ccc(N)cc21` was tested. Which Activity (Nucleic Acid [4]) did it give?
The Activity was “Active”.

Which inhibition of growth at 10 µM (MDA-MB-435 [2]) does the source give for `Oc1ccc2cc(-c3ccc4c(c3)OCO4)ccc2c1` here?
Its inhibition of growth at 10 µM is 86.9%.

What about the IC50 (PC-3) of the same molecule?
Its IC50 is 10.8 µM.

What about the IC50 (MDA-MB-231 [5]) of the same molecule?
Its IC50 is 8.5 µM.

And the inhibition of growth at 10 µM (MDA-MB-231 [3])?
The inhibition of growth at 10 µM was 66.3%.

And the IC50 (MDA-MB-435 [6])?
Its IC50 is 3.9 µM.

What about the IC50 (HepG2) of the same molecule?
The IC50 was 2.6 µM.

Which inhibition of growth at 10 µM (MDA-MB-435 [2]) does the source give for `O=[N+]([O-])c1cccc(-c2cc3cc([N+](=O)[O-])ccc3o2)c1` here?
Its inhibition of growth at 10 µM is 4.3%.

What about the inhibition of growth at 10 µM (MDA-MB-231 [3]) of the same molecule?
Its inhibition of growth at 10 µM is 17.3%.

Which results are given for `OCc1ccc(-c2cc3cc(O)ccc3o2)cc1`?
inhibition of growth at 10 µM (MDA-MB-435 [2]): 42.6%; inhibition of growth at 10 µM (MDA-MB-231 [3]): 10.6%

How did the inhibition of growth at 10 µM (MDA-MB-435 [2]) turn out when `Oc1ccc(-c2cc3cc(O)ccc3o2)cc1` was run?
The inhibition of growth at 10 µM was 13.8%.

What about the inhibition of growth at 10 µM (MDA-MB-231 [3]) of the same molecule?
Its inhibition of growth at 10 µM is 29.5%.

Which results are given for `COc1cc([C@@H]2c3cc4c(cc3[C@@H](O[C@@H]3O[C@@H]5CO[C@@H](C)O[C@H]5[C@H](O)[C@H]3O)[C@H]3COC(=O)[C@H]23)OCO4)cc(OC)c1O` [ETOPOSIDE]?
inhibition of growth at 10 µM (MDA-MB-435 [2]): 96.1%; IC50 (PC-3): 1 µM; inhibition (MDA-MB-231 [7]): Active; IC50 (MDA-MB-231 [5]): 3.6 µM; inhibition [8]: Active; inhibition of growth at 10 µM (MDA-MB-231 [3]): 71%; IC50 (MDA-MB-435 [6]): 1.7 µM; IC50 (HepG2): 30 µM; inhibition [9]: Active
